Assays:
[1] = test system: protein kinase (C-terminal His-tag); assay: SPR binding profiles of binders against captured protein kinase, single concentration; conditions: 10 μM ATP; FIG. 8
From the text: A BIACORE® S51 instrument (Biacore AB, Uppsala, Sweden) was used. This instrument has two Y-type flow cells which allow a dual flow of fluids over a sensor chip surface, so-called hydrodynamic addressing, as described in, for example, EP-B1-1021703 (the disclosure of which is incorporated by reference herein). The instrument uses three parallel detection spots on the sensor chip. As sensor chip was used Series S Sensor Chip CM5 (Biacore AB, Uppsala, Sweden) which has a gold-coated surface with a covalently linked carboxymethyl-modified dextran polymer hydrogel. The output from the instrument is a “sensorgram” which is a plot of detector response (measured in “resonance units”, RU) as a function of time. An increase of 1000 RU corresponds to an increase of mass on the sensor surface of approximately 1 ng/mm^2.
100 μg/ml of Penta-His™ antibody, BSA-free (Qiagen, Venlo, Netherlands) in 0.15 M NaCl was diluted to 30 μg/ml in 10 mM sodium acetate buffer pH 5.0 and immobilized on a Series S Sensor Chip CM5 by amine coupling according to the manufacturer's instructions. The contact time was 10 min, the flow rate was 10 μl/min, and 10 mM PBS was used as running buffer. A little less than 12000 RU of antibody were immobilized. […]

[2] = target: T1, HSA (Homo sapiens, UniProt P02768); assay: SPR (BIACORE S51) competition assay for HSA-binding site specificity, dissociation-phase response of mixtures; conditions: for effect of additional reference compounds on dissociation response of S1 on HSA: S1 constant 0.1 μM, reference 0-50 μM, d2 report point, FIG. 6
T1 construct: purchased Sigma A-4327

[3] = target: T1, HSA; conditions: known site specificity of reference compounds (crystallography studies); cited from earlier work

T1 sequence (P02768 25-609): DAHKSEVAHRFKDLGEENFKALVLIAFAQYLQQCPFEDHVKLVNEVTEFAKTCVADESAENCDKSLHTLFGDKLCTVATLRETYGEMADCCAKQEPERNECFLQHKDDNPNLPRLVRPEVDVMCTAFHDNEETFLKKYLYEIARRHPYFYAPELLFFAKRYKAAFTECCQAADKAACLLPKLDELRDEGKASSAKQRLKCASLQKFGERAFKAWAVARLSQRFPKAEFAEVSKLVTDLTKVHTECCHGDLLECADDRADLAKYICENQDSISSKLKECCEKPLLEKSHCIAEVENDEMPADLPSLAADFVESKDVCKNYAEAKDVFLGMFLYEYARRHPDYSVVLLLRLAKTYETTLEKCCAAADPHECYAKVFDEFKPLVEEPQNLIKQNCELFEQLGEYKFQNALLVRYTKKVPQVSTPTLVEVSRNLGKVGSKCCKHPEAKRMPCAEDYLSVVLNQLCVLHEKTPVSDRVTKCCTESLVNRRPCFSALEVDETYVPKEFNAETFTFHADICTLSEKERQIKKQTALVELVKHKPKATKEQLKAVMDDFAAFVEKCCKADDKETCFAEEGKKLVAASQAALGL

Structure (SMILES) | association/dissociation profile on the protein kinase [1] | effect of the reference compound on binding/dissociation phase of S1 on HSA [2] | effect of additional reference compounds on dissociation response of S1 on HSA [2] | known HSA-binding site [3]
Nc1ncnc2c1ncn2[C@@H]1O[C@H](COP(=O)(O)OP(=O)(O)OP(=O)(O)O)[C@@H](O)[C@H]1O [ATP, adenosine triphosphate] | very rapid binding and dissociation profile | – | – | –
C[C@H]1O[C@@H](O[C@H]2[C@@H](O)C[C@H](O[C@H]3[C@@H](O)C[C@H](O[C@H]4CC[C@@]5(C)[C@H](CC[C@@H]6[C@@H]5CC[C@]5(C)[C@@H](C7=CC(=O)OC7)CC[C@]65O)C4)O[C@@H]3C)O[C@@H]2C)C[C@H](O)[C@@H]1O [digitoxin] | – | does not seem to affect the dissociation phase much | – | –
O=C1NC(=O)C(c2ccccc2)(c2ccccc2)N1 [phenyloin] | – | – | follow the behaviour of warfarin and naproxen respectively | site II
COc1cc(NS(=O)(=O)c2ccc(N)cc2)nc(OC)n1 [sulfadimethoxine] | – | – | deviates from the behaviour of warfarin | site I

— US7320879B2, “Method of determining site-specificity and kit therefor” (Biacore AB, priority 2002, dated 2008)
